Consider one compound from patent US11745181B2, “Devices and methods for bioassay” (Unchained Labs, priority 2017, dated 2023).

In data set [1] the test system is zebrafish embryos Tg(fli1:EGFP). Put plainly: Heart rate measurement of zebrafish embryos/larvae in the μZMount fluidic device. It counts as in vivo. Particulars: 0.1 μM, 1 μM, or 5 μM for 48 or 96 hours; compared with published literature. Here is the method: Each different drug treatment was replenished every 24 hours, effectively dosing the zebrafish at 24, 48, 72, and 96 hours post initial drug treatment. The drug was added in a manner similar to replenishing the media. At 4 dpf, each larvae was moved into its respective second bioassay region by adding 10 μl of media to the sample chamber and aspirated out quickly from the first outlet. The yolk of the zebrafish at this age has depleted enough to allow the fish to flow into the second bioassay region.
Heart rate was measured for no less than five embryos per treatment at 48 hours post fertilization (hpf) and 96 hpf. Of the heart rates measured, three of them were recorded using video image capturing techniques for future evaluation. The heart rates were measured by visually inspecting the heart beat and counting the number of beats in 15 seconds and then multiplying by 4.

Data set [2] relates to zebrafish larvae Tg(fli1:EGFP). The experiment in a line: High-resolution fluorescence-microscopy imaging of vessel sprouting and morphology in zebrafish larvae. It counts as in vivo. The note with it: 0.1 μM, 1 μM, or 5 μM, replenished every 24 hours. From the text: In this example, green fluorescent zebrafish embryos were loaded into the fluidic chambers of μZMount, a non-limiting exemplary fluidic device with the structure provided in FIGS. 1-2 herein and dimensions that were within 5% of the target dimensions as provided herein with reference to the illustrative embodiment provided in FIGS. 1-2, and that includes a plurality of fluidic chambers having the features and within 5% of the target dimensions provided herein for the illustrative embodiment of FIGS. 2A-2B. […] These zebrafish were Tg(fli1:EGFP) and expressed enhanced GFP under the control of the fli1 promoter such that the entire vasculature fluoresces. The zebrafish embryos and larvae that developed therefrom, were visualized with high-resolution fluorescent microscopy.
Each different drug treatment was replenished every 24 hours, effectively dosing the zebrafish at 24, 48, 72, and 96 hours post initial drug treatment. The drug was added in a manner similar to replenishing the media. […]
Embryos were imaged at various time points while within the fluidic device, up to 5 dpf, using high-resolution fluorescence-microscopy. […]
Drug-mediated inhibition of intersegmental and subintestinal vessels sprouting was recorded using high-resolution fluorescence-microscopy.

SMILES strings stand for the structures.

For `Cc1cc(C)c(/C=C2\C(=O)Nc3ccccc32)[nH]1` [SU-5416], the heart rates result in data set [1] is given as “within the normal range”. The dorsalization entry in data set [2] is “concentration dependent dorsalization”. Further, the “inhibition of intersegmental and subintestinal vessels sprouting (angiogenic development)” value in data set [2] (fluorescence microscopy) is listed as “suppression of angiogenic development similar to published work”.
